Experiments:
Format in all cases: functional
Mus musculus [1] = assay: Significant suppressive activity of delayed type hypersensitivity (DTH) with out inhibition of humoral immunity in mice by oral administration at dose of 50 mg/kg
Mus musculus [2] = assay: Significant suppressive activity of delayed type hypersensitivity (DTH) with out inhibition of humoral immunity in mice by oral administration at dose of 400 mg/kg
Mus musculus [3] = assay: Compound was tested for its significant suppressive activity of delayed type hypersensitivity (DTH) with out inhibition of humoral immunity in mice by oral administration at dose of 12.5 mg/kg
Mus musculus [4] = assay: Compound was tested for its significant suppressive activity of delayed type hypersensitivity (DTH) with out inhibition of humoral immunity in mice by oral administration at dose of 100 mg/kg
Mus musculus [5] = assay: Compound was tested for its significant suppressive activity of delayed type hypersensitivity (DTH) with out inhibition of humoral immunity in mice by oral administration at dose of 200 mg/kg
Mus musculus [6] = assay: Compound was tested for its significant suppressive activity of delayed type hypersensitivity (DTH) with out inhibition of humoral immunity in mice by oral administration at dose of 25 mg/kg
Mus musculus [7] = assay: The compound was tested for its significant suppressive activity of delayed type hypersensitivity (DTH) with out inhibition of humoral immunity in mice by oral administration at dose of 400 mg/kg

Compound	Increase in ear thickness (Mus musculus [1])	inhibition in vivo at 50 mg/kg (Mus musculus [1]) [%]	Increase in ear thickness (Mus musculus [2])	inhibition in vivo at 400 mg/kg (Mus musculus [2]) [%]	other results
Cc1ccc(-c2cn3c(n2)sc2ccccc23)cc1O	3.3 1/100mm	37.7	3.2 1/100mm	39.6	
CN(C)c1cccc(-c2cn3c(n2)sc2ccccc23)c1					Increase in ear thickness (Mus musculus [3]): 3.4 1/100mm; inhibition in vivo at 12.5 mg/kg (Mus musculus [3]): 17%; Increase in ear thickness (Mus musculus [4]): 3.2 1/100mm; inhibition in vivo at 100 mg/kg (Mus musculus [4]): 21%
CS(=O)(=O)Nc1cccc(-c2cn3c(n2)sc2ccccc23)c1	3.8 1/100mm	28.3	3.6 1/100mm	32.1	
COC(=O)c1cc(-c2cn3c(n2)sc2ccccc23)ccc1O	4.2 1/100mm	-5	2.3 1/100mm	42.5	
CC(=O)Nc1ccc(-c2cn3c(n2)sc2ccccc23)cc1	3.6 1/100mm				Increase in ear thickness (Mus musculus [5]): 3 1/100mm; inhibition in vivo at 200 mg/kg (Mus musculus [5]): 9.1%; inhibition in vivo at 25 mg/kg (Mus musculus [6]): -9.1%
O=[N+]([O-])c1cccc(-c2cn3c(n2)sc2ccccc23)c1	3.2 1/100mm	39.6	2.1 1/100mm	60.4	
Oc1cccc(-c2cn3c(n2)sc2cc(O)ccc23)c1	2.3 1/100mm	43.9	2.4 1/100mm	41.5	
Oc1ccccc1-c1cn2c(n1)sc1ccccc12	3.5 1/100mm	12.5	1.4 1/100mm	65	
Oc1ccc(-c2cn3c(n2)sc2ccccc23)cc1	3.4 1/100mm	44.2	3.6 1/100mm	40.9	
N#Cc1cccc(-c2cn3c(n2)sc2ccccc23)c1	3 1/100mm	6.3	4.7 1/100mm	-46.9	
Brc1ccc(-c2cn3c(n2)sc2ccccc23)cc1	5.5 1/100mm	-5.8	4.9 1/100mm	5.8	
Oc1cccc(-c2cn3c(nc4ccccc43)s2)c1	2.3 1/100mm	43.9	3.8 1/100mm	7.3	
Ic1ccc(-c2cn3c(n2)sc2ccccc23)cc1	6.4 1/100mm	-23.1	5.3 1/100mm	-1.9	
Cc1ccc2c(c1)sc1nc(-c3cccc(O)c3)cn12	4.5 1/100mm	-12.5	3.8 1/100mm	5	
Oc1ccc(-c2cn3c(n2)sc2ccccc23)cc1O					Increase in ear thickness (Mus musculus [5]): 3.1 1/100mm; inhibition in vivo at 200 mg/kg (Mus musculus [5]): 3.1%; Increase in ear thickness (Mus musculus [6]): 2.5 1/100mm; inhibition in vivo at 25 mg/kg (Mus musculus [6]): 21.9%
COc1ccccc1-c1cn2c(n1)sc1ccccc12	5.5 1/100mm	3.5	4.7 1/100mm	17.5	
CC(=O)Nc1cccc(-c2cn3c(n2)sc2ccccc23)c1	3.5 1/100mm	34	3.9 1/100mm	26	
Cc1ccc(-c2cn3c(n2)sc2ccccc23)cc1S(C)(=O)=O	1.9 1/100mm	53.7	4.9 1/100mm	3.9	
O=[N+]([O-])c1cc(-c2cn3c(n2)sc2ccccc23)ccc1O	4.1 1/100mm	22.6	4.2 1/100mm	20.8	
COc1cccc(-c2cn3c(n2)sc2ccccc23)c1	2.8 1/100mm	12.5	2.1 1/100mm	34.4	
Cc1c(-c2cccc(O)c2)nc2sc3ccccc3n12	3.9 1/100mm	9.3	3.6 1/100mm	16.3	
c1ccc(-c2cn3c(n2)sc2ccccc23)cc1	6 1/100mm	-3.4	5.7 1/100mm	1.7	

Compound	Increase in ear thickness (Mus musculus [1])	inhibition in vivo at 50 mg/kg (Mus musculus [1]) [%]	Increase in ear thickness (Mus musculus [2])	inhibition in vivo at 400 mg/kg (Mus musculus [2]) [%]	other results
Nc1cccc(-c2cn3c(n2)sc2ccccc23)c1	4.1 1/100mm	22.6	4.3 1/100mm	18.9	
O=C(O)c1ccc(-c2cn3c(n2)sc2ccccc23)cc1	3.8 1/100mm	33.3	2.9 1/100mm	49.1	
Clc1cccc(-c2cn3c(n2)sc2ccccc23)c1	5 1/100mm	3.8	5.8 1/100mm	-11.5	
Clc1ccccc1-c1cn2c(n1)sc1ccccc12	5 1/100mm	3.8	6.3 1/100mm	-21.2	
Oc1cc(O)cc(-c2cn3c(n2)sc2ccccc23)c1	5.8 1/100mm	-26.1	3.6 1/100mm	21.7	
Cc1ccc(-c2cn3c(n2)sc2ccccc23)cc1	5.8 1/100mm	-11.5			Increase in ear thickness (Mus musculus [7]): 5.3 1/100mm; inhibition in vivo at 400 mg/kg (Mus musculus [7]): -1.9%
COc1ccc(-c2cn3c(n2)sc2ccccc23)cc1	5.3 1/100mm	-1.9	4.6 1/100mm	11.5	
O=[N+]([O-])c1ccc(-c2cn3c(n2)sc2ccccc23)cc1	5.4 1/100mm	21.7	5 1/100mm	27.5	
Oc1cccc(-c2cn3c(n2)oc2ccccc23)c1	2.6 1/100mm	18.8	2.9 1/100mm	9.4	
COC(=O)c1ccc(-c2cn3c(n2)sc2ccccc23)cc1	6 1/100mm	-5.3	4.9 1/100mm	14	
COC(=O)c1cccc(-c2cn3c(n2)sc2ccccc23)c1	1.9 1/100mm	64.2	1.9 1/100mm	64.2	
COc1ccc(-c2cn3c(n2)sc2ccccc23)cc1O	4.9 1/100mm	7.5	4.6 1/100mm	13.2	
Cc1ccc(-c2cn3c(n2)sc2ccccc23)cc1[S+](C)[O-] (stereo not given)					Increase in ear thickness (Mus musculus [5]): 1.9 1/100mm; inhibition in vivo at 200 mg/kg (Mus musculus [5]): 53.7%; Increase in ear thickness (Mus musculus [6]): 3.9 1/100mm; inhibition in vivo at 25 mg/kg (Mus musculus [6]): 4.9%
COc1ccc2c(c1)sc1nc(-c3cccc(O)c3)cn12	4.8 1/100mm	-20	4.9 1/100mm	-22.5	
Oc1cc(-c2cn3c(n2)sc2ccccc23)ccc1Cl	2.4 1/100mm	44.2	3.7 1/100mm	14	
COC(=O)c1cccc(-c2cn3c(n2)sc2cc(O)ccc23)c1	3.8 1/100mm	7.3	5.1 1/100mm	-24.4	
O=C(O)c1cccc(-c2cn3c(n2)sc2ccccc23)c1	2.8 1/100mm	34.9	3.2 1/100mm	25.6	
Clc1ccc(-c2cn3c(n2)sc2ccccc23)cc1	4.8 1/100mm	30.4	5.9 1/100mm	14.5	
Fc1ccc(-c2cn3c(n2)sc2ccccc23)cc1	5 1/100mm	-3.8	5.9 1/100mm	-13.5	
O=CNc1cccc(-c2cn3c(n2)sc2ccccc23)c1					Increase in ear thickness (Mus musculus [5]): 2.2 1/100mm; inhibition in vivo at 200 mg/kg (Mus musculus [5]): 48.8%; Increase in ear thickness (Mus musculus [6]): 2.6 1/100mm; inhibition in vivo at 25 mg/kg (Mus musculus [6]): 39.5%
COc1ccc2nc(NC(=O)Nc3ccccc3)sc2c1 [FRENTIZOLE]	3.5 1/100mm	42.6			

Source: ChEMBL document CHEMBL1123416, “Imidazo[2,1-b]benzothiazoles. 2. New immunosuppressive agents” (1986)
